Experimental data reported in patent publication US20130252930A1 (BIOMARIN PHARMACEUTICAL INC., priority 2010, published 2013).
Like-named read-outs stand apart in the source and are kept apart here.

What was measured:
[1] = Human liver microsome stability assay (Biological Example 8b); conditions: liver microsomes, pH 7.4
Experimental: The reaction was started with addition of excess NADPH (5 mg/mL, 15 μL in 0.1 M potassium phosphate buffer, 1.0 mM EDTA, pH 7.4), the total volume is 45 μL (compound final concentration was 1 μM). […] 50 μL of the supernatant was transferred from each well into a 96-well sample plate containing 50 μL of ultra-pure water (Millipore) for LC-MS/MS analysis.

[2] = molecular target: T1, CYP17 (human testicular microsome) (Homo sapiens, UniProt P05093); assay: CYP17 enzymatic assay (IC50) (Biological Example 4); type: biochemical; conditions: human testicular microsome
T1 construct: using microsomal fraction from human testis (Celsis Cat #S00110) as the enzyme source; tissue Celsis S00110; host or cells: human testis microsomal fraction
T1 sequence (P05093 1-508): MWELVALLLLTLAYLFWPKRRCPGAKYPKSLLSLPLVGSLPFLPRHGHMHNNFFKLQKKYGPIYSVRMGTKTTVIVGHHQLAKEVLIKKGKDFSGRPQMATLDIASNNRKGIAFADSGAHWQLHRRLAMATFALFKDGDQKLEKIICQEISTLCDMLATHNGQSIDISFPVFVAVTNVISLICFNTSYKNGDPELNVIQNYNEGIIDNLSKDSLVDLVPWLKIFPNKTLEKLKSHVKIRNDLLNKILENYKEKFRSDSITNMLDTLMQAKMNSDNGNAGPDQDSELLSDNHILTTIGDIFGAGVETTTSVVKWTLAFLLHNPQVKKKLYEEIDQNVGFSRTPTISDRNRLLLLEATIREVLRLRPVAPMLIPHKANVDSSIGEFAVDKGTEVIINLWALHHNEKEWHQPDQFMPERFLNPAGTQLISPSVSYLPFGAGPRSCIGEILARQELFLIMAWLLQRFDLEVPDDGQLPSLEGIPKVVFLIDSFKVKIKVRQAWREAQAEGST

[3] = molecular target: T1, CYP17 (human testicular microsome); assay: CYP17 enzymatic assay (% inhibition at 10 nM), version 1 (Biological Example 5); type: biochemical
[4] = molecular target: T1, CYP17 (human testicular microsome); assay: CYP17 enzymatic assay (% inhibition at 1 nM) (Biological Example 12); type: biochemical; conditions: compound at 1 nM, read-out: CYP17 enzymatic assay % inhibition at 1 nM (Biological Example No. 12)
[5] = 10 nM compound, DHEA by ELISA, read-out: Biological Example No. 5: CYP17 percent inhibition at 10 nM (version 1)
[6] = DHEA by ELISA, read-out: Biological Example No. 4: CYP17 enzymatic assay IC50
[7] = read-out: CYP17 enzymatic assay IC50 (Biological Example No. 4)
[8] = compound at 10 nM, read-out: CYP17 enzymatic assay % inhibition at 10 nM (Biological Example No. 5)

SMILES	half-life at 1 μM [1] [min]	IC50 ([2]; read-out: Biological Example No. 4: CYP17 enzymatic assay IC50) [nM]	inhibition at 0.01 µM [3, 5] [%]	IC50 [2, 6] [nM]	inhibition at 0.001 µM [4] [%]	IC50 [2, 7] [nM]	inhibition at 0.01 µM [3, 8] [%]
C[C@]12CC[C@H](O)CC1=CC[C@@H]1[C@@H]2CC[C@]2(C)C(c3cnccc3F)=CC[C@@H]12 [Cmpd 285]	1 to 50	< 11	–	–	–	–	–
COc1cncc(C2=CC[C@H]3[C@@H]4CCC5=CC(=O)NCC[C@]5(C)[C@H]4CC[C@]23C)c1 [Compound 53, (5aR,7aS)-8-(5-methoxypyridin-3-yl)-5a,7a-dimethyl-4,5,5a,5b,6,7,7a,8,9,10,10a,10b,11,12-tetradecahydrocyclopenta[5,6]naphtho[2,1-c]azepin-3(2H)-one]	–	–	50 to 80	< 11	–	–	–
COc1cncc(C2=CC=C3[C@@H]4CC=C5C[C@@H](OC(C)=O)CC[C@]5(C)[C@H]4CC[C@]23C)c1 [Compound 80, (3S,10R,13S)-17-(5-methoxypyridin-3-yl)-10,13-dimethyl-2,3,4,7,8,9,10,11,12,13-decahydro-1H-cyclopenta[a]phenanthren-3-yl acetate]	–	–	> 80	< 11	–	–	–
Cc1cncc(C2=CC[C@H]3[C@@H]4CC[C@H]5CCOCC[C@]5(C)[C@H]4CC[C@]23C)c1 [Compound 126, 3-((5aS,5bS,7aS,10aS,10bR,12aS)-5a,7a-dimethyl-2,4,5,5a,5b,6,7,7a,10,10a,10b,11,12,12a-tetradecahydro-1H-cyclopenta[5,6]naphtho[1,2-d]oxepin-8-yl)-5-methylpyridine]	–	–	50 to 80	< 11	–	–	–
CC(=O)O[C@H]1CC[C@@]2(C)[C@@H](CC[C@H]3C4=CC=C(n5ccnc5)[C@@]4(C)CC[C@@H]32)C1 [Compound 169, (5S,8R,9S,10S,13S)-17-(1H-imidazol-1-yl)-10,13-dimethyl-2,3,4,5,6,7,8,9,10,11,12,13-dodecahydro-1H-cyclopenta[a]phenanthren-3-yl acetate]	–	–	> 80	< 11	–	–	–
C[C@]12CCC3C(CC=C4C[C@H](O)CC[C@@]43C)C1=CC=C2c1cccnc1 (stereo partly drawn) [Compound 199, (3R,10R,13S)-10,13-dimethyl-17-(pyridin-3-yl)-2,3,4,7,8,9,10,11,12,13-decahydro-1H-cyclopenta[a]phenanthren-3-ol]	1 to 50	–	–	–	> 50	< 11	–
C[C@]12CCC3C(CC(O)C45CC4CC[C@]35C)C1=CC=C2c1cccnc1 (stereo partly drawn) [Compound 200, (3aR,5aS)-3a,5a-dimethyl-6-(pyridin-3-yl)-1,1a,2,3,3a,3b,4,5,5a,8b,9,10-dodecahydrocyclopenta[a]cyclopropa[2,3]cyclopenta[1,2-f]naphthalen-10-ol]	1 to 50	–	–	–	> 50	< 11	–
CC(=O)N[C@@H]1CC[C@@]2(C)C(CCC3C2CC[C@]2(C)C(c4cccnc4)=CCC32)C1 (stereo partly drawn) [Compound 215, N-((3R,10S,13S)-10,13-dimethyl-17-(pyridin-3-yl)-2,3,4,5,6,7,8,9,10,11,12,13,14,15-tetradecahydro-1H-cyclopenta[a]phenanthren-3-yl)acetamide]	1 to 50	–	–	–	> 50	< 11	–
COC1C[C@H]2[C@@H]3CC=C(n4ccnc4)[C@@]3(C)CC[C@@H]2[C@@]2(C)CCC3CC312 (stereo partly drawn) [Compound 236, 1-((3aR,5aS)-10-methoxy-3a,5a-dimethyl-1,1a,2,3,3a,3b,4,5,5a,8,8a,8b,9,10-tetradecahydrocyclopenta[a]cyclopropa[2,3]cyclopenta[1,2-f]naphthalen-6-yl)-1H-imidazole]	–	–	–	–	10 to 50	< 11	> 80
C[C@]12CC[C@H](O)C[C@@H]1CC[C@@H]1[C@@H]2CC[C@]2(C)C(n3ccnn3)=CC[C@@H]12 [Compound 451, (3S,5S,8R,9S,10S,13S,14S)-10,13-dimethyl-17-(1H-1,2,3-triazol-1-yl)-2,3,4,5,6,7,8,9,10,11,12,13,14,15-tetradecahydro-1H-cyclopenta[a]phenanthren-3-ol]	–	–	–	–	> 50	< 11	> 80
